Reference: patent US20050239873A1 (priority 1999, published 2005)

Legend:
[1] = system: TAMH cells over-expressing Bcl-xL A142L; assay: Cytotoxicity (Alamar Blue) in Bcl-xL transfectants; format: cell-based, murine
Procedure: (§1) TAMH cells were transfected with DNA encoding each of the mutant BCl-xL proteins by lipofection (See Example 1 for method). For analysis of BCl-xL expression, 20 μg of cell protein was separated by 20% SDS-PAGE and transferred to nitrocellulose membranes. Immunodetection of BCl-xL was carried out using rabbit anti-Bcl-xL antibody and Protein A/horseradish peroxidase conjugate, followed by chemiluminescent detection. Cells were grown to about 80% confluence in 96-well plates followed by addition of 100 μl of 2X AA1 or staurosporine (STS) solution in complete medium. STS is a natural product originally isolated from the bacterium Streptomyces and found to be capable of inducing apoptosis in certain cells and which induction of apoptosis could be blocked by the expression of a Bcl-2 family protein. Cell viability was determined spectrophotometrically after 24 h treatment as the ratio of reduced and oxidized Alamar Blue (BIOSOURCE) at 570 nm and 600 nm, respectively. All results were normalized against DMSO controls. LD50 values were calculated by non-linear regression analysis using Prism software (Graphpad).

[2] = system: TAMH cells over-expressing Bcl-xL F146L; assay: Cytotoxicity (Alamar Blue) in Bcl-xL transfectants; format: cell-based, murine
Procedure: as §1

[3] = system: TAMH cells over-expressing Bcl-xL WT; assay: Cytotoxicity (Alamar Blue) in Bcl-xL transfectants; format: cell-based, murine; settings: 24 h
Procedure: as §1

[4] = system: TAMH cells over-expressing Bcl-xL E92L; assay: Cytotoxicity (Alamar Blue) in Bcl-xL transfectants; format: cell-based, murine; settings: 24 h
Procedure: as §1

[5] = system: TAMH cells over-expressing Bcl-xL F97W; assay: Cytotoxicity (Alamar Blue) in Bcl-xL transfectants; format: cell-based, murine; settings: 24 h
Procedure: as §1

Bcl-xL(ΔC) E92L [6] = molecular target: T1, Bcl-xL(ΔC) E92L (Homo sapiens, UniProt Q07817, E92L); assay: Pore-forming activity, calcein release from liposomes; format: biochemical; settings: Bcl-xL(ΔC) 500 nM; read-out: Pore Inhibition IC50
T1 construct: inferred from Ni-NTA purification and the pET22b(+) NdeI/XhoI cloning); made in house; host or cells: Escherichia coli BL21(DE3) carrying pUB520
T1 sequence (Q07817 1-211 E92L limits assumed): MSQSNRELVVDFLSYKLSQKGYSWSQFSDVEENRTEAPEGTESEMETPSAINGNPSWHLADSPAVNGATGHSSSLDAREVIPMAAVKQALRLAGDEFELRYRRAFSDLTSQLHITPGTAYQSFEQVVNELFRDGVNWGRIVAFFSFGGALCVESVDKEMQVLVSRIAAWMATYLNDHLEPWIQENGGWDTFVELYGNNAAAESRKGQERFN
Procedure: (§2) Large unilamellar vesicles composed of 60% dioleoylphophatidylcholine and 40% dioleoylphosphatidylglycerol were prepared by the extrusion method of Mayer et al., supra. Lipid stocks, in chloroform, were mixed and dried under a stream of nitrogen gas. The lipid was resuspended by vortexing for 30 min in a solution of 40 mM calcein (Molecular Probes), 25 mM KCl, and 10 mM KOAc, pH 5.0. After 10 freeze-thaw cycles, the lipid suspension was extruded through two 0.1 μm pore diameter Nucleopore filters. Non-entrapped dye was removed by passage over a Sephadex G10 column (Amersham Biosciences). Lipid concentration was measured using the ammonium ferrothiocyanate method (Stewart, Anal. Biochem. 104:10-14, 1980).
(§3) For pore assays, recombinant truncated Bcl-2 family protein or mutant protein (Bcl-xL(ΔC)) (500 nM) was added to large unilamellar vesicles (60 μM lipid concentration) in 100 mM KCl, 10 mM KOAc, pH 5.0, and fluorescence measured (490 nm excitation, 520 nm emission) with a Fluoromax-3 spectrophotometer. Peptides of the BH3 domain were incubated with the BCl-xL(ΔC) 5 min prior to mixing with liposomes. AA1 was added to liposomes 1 min before adding the Bcl-xL(ΔC) protein. Samples for kinetic assays were analyzed in a thermostatted cuvette at 37° C. with constant stirring. Dose responses were measured in black quartz microplates (Hellma) at room temperature. Calcein release was expressed as percentage of maximum release with detergent lysis (0.1% Triton X-100).

Bcl-xL(ΔC) F97W [7] = molecular target: T2, Bcl-xL(ΔC) F97W (Homo sapiens, UniProt Q07817, F97W); assay: as above; format: biochemical; settings: Bcl-xL(ΔC) 500 nM; read-out: Pore Inhibition IC50
T2 construct: inferred from Ni-NTA purification and the pET22b(+) NdeI/XhoI cloning); made in house; host or cells: Escherichia coli BL21(DE3) carrying pUB520
T2 sequence (Q07817 1-211 F97W limits assumed): as the sequence (Q07817 1-211 E92L limits assumed) above, with L92E, F97W counted along it
Procedure: as §2, §3

Bcl-xL(ΔC) WT [8] = molecular target: T3, Bcl-xL(ΔC) WT (Homo sapiens, UniProt Q07817); assay: as above; format: biochemical
T3 construct: inferred from Ni-NTA purification and the pET22b(+) NdeI/XhoI cloning); made in house; host or cells: Escherichia coli BL21(DE3) carrying pUB520
T3 sequence (Q07817 1-211 limits assumed, stated change not applied): as the sequence (Q07817 1-211 E92L limits assumed) above, with L92E counted along it
Procedure: as §2, §3

Bcl-xL(ΔC) F146L [9] = molecular target: T4, Bcl-xL(ΔC) F146L (Homo sapiens, UniProt Q07817, F146L); assay: as above; format: biochemical; settings: Bcl-xL(ΔC) 500 nM; read-out: Pore Inhibition IC50
T4 construct: inferred from Ni-NTA purification and the pET22b(+) NdeI/XhoI cloning); made in house; host or cells: Escherichia coli BL21(DE3) carrying pUB520
T4 sequence (Q07817 1-211 F146L limits assumed): as the sequence (Q07817 1-211 E92L limits assumed) above, with L92E, F146L counted along it
Procedure: as §2, §3

Bcl-xL(ΔC) A142L [10] = molecular target: T5, Bcl-xL(ΔC) A142L (Homo sapiens, UniProt Q07817, A142L); assay: as above; format: biochemical; settings: Bcl-xL(ΔC) 500 nM; read-out: Pore Inhibition IC50
T5 construct: inferred from Ni-NTA purification and the pET22b(+) NdeI/XhoI cloning); made in house; host or cells: Escherichia coli BL21(DE3) carrying pUB520
T5 sequence (Q07817 1-211 A142L limits assumed): as the sequence (Q07817 1-211 E92L limits assumed) above, with L92E, A142L counted along it
Procedure: as §2
as §3, with “Peptides of the BH3 domain were incubated with the BCl-xL(ΔC) 5 min prior to mixing with liposomes. AA1 was added to liposomes 1 min before adding the Bcl-xL(ΔC) protein.” left out, “X-100). […]” for “X-100).”

Bcl-xL(ΔC) E92L [11] = molecular target: T1, Bcl-xL(ΔC) E92L; assay: Fluorescence anisotropy binding; settings: AA1 200 nM or FITC-labeled BH3 peptide 25 nM; read-out: Dissociation Constant KD
Procedure: (§4) A pET22b (Novagen) vector coding for BCl-xL(ΔC), a mutant Bcl-xL protein without the COOH terminal region, was transformed into Escherichia coli BL21(DE3) cells that carried pUB520 (encoding human Arg tRNA) and grown to an A600 of 0.6. Protein expression was induced with 0.1 mM isopropyl β-D-thiogalactoside at 30° C. The cells were resuspended 1:5 (w/v) in PEB buffer (50 mM Tris, pH 8.0, 200 mM NaCl, 0.2 mM phenylmethylsulfonyl fluoride, 5 mM β-mercaptoethanol, 5 mM imidazole, and 1% (v/v) glycerol), and stirred for 20 min at 4° C. Cells were disrupted by pulse sonication, and the soluble fraction was loaded onto a nickel-nitrilotriacetic acid column (Qiagen) equilibrated with PEB buffer. The column was washed with 40 mM imidazole, eluted with 200 mM imidazole, and the protein fractions were pooled and dialyzed (50 mM Tris, pH 8.0, 200 mM NaCl, 0.2 mM phenylmethylsulfonyl fluoride) at 4° C. overnight. The dialyzed protein was concentrated to 10 mg/ml and fractionated on a Superdex 75 gel filtration column (Amersham Biosciences). The fractions containing Bcl-xL(ΔC) protein were pooled, exchanged into low-salt buffer (same as for previous dialysis buffer, except 50 mM NaCI), and loaded onto a MonoQ anion exchange column (Amersham Biosciences). Protein was eluted from the column with increasing NaCl gradient, pooled and concentrated.
(§5) All reagents were prepared in 0.2 μm-filtered PBS with fresh 1 mM DTT. […] Slit widths were set at 10 nm for both excitation and emission.

Bcl-xL(ΔC) F97W [12] = molecular target: T2, Bcl-xL(ΔC) F97W; assay: Fluorescence anisotropy binding
Procedure: as §4, §5

Bcl-xL(ΔC) WT [13] = molecular target: T3, Bcl-xL(ΔC) WT; assay: Fluorescence anisotropy binding; settings: AA1 200 nM or FITC-labeled BH3 peptide 25 nM; read-out: Dissociation Constant KD
Procedure: as §4, §5

Bcl-xL(ΔC) A142L [14] = molecular target: T5, Bcl-xL(ΔC) A142L; assay: Fluorescence anisotropy binding
Procedure: as §4, §5

Bcl-xL(ΔC) F146L [15] = molecular target: T4, Bcl-xL(ΔC) F146L; assay: Fluorescence anisotropy binding
Procedure: as §4, §5

[16] = AA1 200 nM or FITC-labeled BH3 peptide 25 nM, read-out: Dissociation Constant KD

## CCCCCC[C@H]1C(=O)O[C@H](C)[C@H](NC(=O)c2cccc(NC=O)c2O)C(=O)O[C@@H](C)[C@@H]1OC(=O)CC(C)C [antimycin A1]
[1]
  sensitivity to antimycin A1: completely insensitive
[1]; 24 h
  Cytotoxicity LD50: >10 µM
[2]
  sensitivity to antimycin A1: completely insensitive
[2]; 24 h
  Cytotoxicity LD50: >10 µM
[3]
  Cytotoxicity LD50: 0.47 µM
[3]; listed as AA1
  Cytotoxicity LD50: 0.47 ± 0.07^ μM
[4]
  Cytotoxicity LD50: 1.72 ± 0.3 µM
[4]; listed as AA1
  Cytotoxicity LD50: 1.72 ± 0.34^2 μM
[5]
  Cytotoxicity LD50: 5.12 ± 0.9 µM
[5]; listed as AA1
  Cytotoxicity LD50: 5.12 ± 0.94^2 μM
Bcl-xL(ΔC) E92L [6]
  IC50: 2.47 ± 0.3 µM
Bcl-xL(ΔC) F97W [7]
  IC50: 3.45 ± 0.34 µM
Bcl-xL(ΔC) WT [8]
  effect on Bcl-xL pore-forming activity: inhibited
Bcl-xL(ΔC) WT [8]; Bcl-xL(ΔC) 500 nM, read-out: Pore Inhibition IC50
  IC50: 2.03 ± 0.24 µM
Bcl-xL(ΔC) F146L [9]
  IC50: 3.6 ± 0.4 µM
Bcl-xL(ΔC) A142L [10]
  IC50: 4.1 ± 1.24 µM
Bcl-xL(ΔC) E92L [11]
  Kd: 5.06 ± 0.86 µM
Bcl-xL(ΔC) F97W [12]
  increase in Kd compared with Bcl-xL wt(ΔC): 8 fold
Bcl-xL(ΔC) F97W [12]; [16]
  Kd: 17.6 ± 5.2 µM
Bcl-xL(ΔC) WT [13]
  Kd: 2.36 ± 1.41 µM
Bcl-xL(ΔC) A142L [14]
  increase in Kd compared with Bcl-xL wt(ΔC): 20 fold
Bcl-xL(ΔC) A142L [14]; [16]
  Kd: 41.8 ± 21.4 µM
Bcl-xL(ΔC) F146L [15]
  decrease in affinity: ~10 fold
Bcl-xL(ΔC) F146L [15]; [16]
  Kd: 20 ± 9.4 µM
